Experimental data taken from the supplement of paper PMC10307832.

Columns and labels:
Assay in all cases: relative viability (nuclei count vs DMSO), 5 days (fraction); higher = more cells survive
[1] = tested on: NCI-H322M
How it was run: (§1)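 Values are medians from duplicate plates. Each reflects relative viability, defined as the nuclei count of treated wells over that of vehicle wells. Lung cancer cell lines in 1536-well plates were pin-tool dosed one day after seeding with one drug alone or with a fixed anchor-drug dose plus five library-drug doses (not always all listed) in √10 steps, then fixed, stained and imaged at 4× after 5 days.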

[2] = tested on: HOP-62
How it was run: as §1

[3] = tested on: HCC-44
How it was run: as §1

[4] = tested on: NCI-H520
How it was run: as §1

[5] = tested on: NCI-H1651
How it was run: as §1

[6] = tested on: NCI-H23
How it was run: as §1

[7] = tested on: LCLC-103H
How it was run: as §1

[8] = tested on: NCI-H2085
How it was run: as §1

[9] = tested on: NCI-H838
How it was run: as §1

[10] = tested on: ABC-1
How it was run: as §1

[11] = tested on: NCI-H1395
How it was run: as §1

[12] = tested on: NCI-H1666
How it was run: as §1

[13] = tested on: NCI-H647
How it was run: as §1

[14] = tested on: NCI-H1993
How it was run: as §1

[15] = tested on: NCI-H661
How it was run: as §1

[16] = tested on: CAL-12T
How it was run: as §1

[17] = tested on: COR-L23
How it was run: as §1

[18] = tested on: 201T
How it was run: as §1

[19] = tested on: NCI-H2347
How it was run: as §1

[20] = tested on: NCI-H1355
How it was run: as §1

[21] = tested on: NCI-H2170
How it was run: as §1

[22] = tested on: NCI-H2228
How it was run: as §1

[23] = tested on: LC-2-ad
How it was run: as §1

Cc1cnc(-c2cnc(NCCNc3ccc(C#N)cn3)nc2-c2ccc(Cl)cc2Cl)[nH]1 + CS(=O)(=O)N1CCN(Cc2cc3nc(-c4cccc5[nH]ncc45)nc(N4CCOCC4)c3s2)CC1 [Pictilisib] (partner 1 µM)
relative viability ([1]; first compound 0.08 µM): 0.59
relative viability ([1]; first compound 0.253 µM): 0.523
relative viability ([1]; first compound 0.8 µM): 0.413
relative viability ([1]; first compound 2.53 µM): 0.538
relative viability ([2]; first compound 0.08 µM): 0.777
relative viability ([2]; first compound 0.253 µM): 0.688
relative viability ([2]; first compound 0.8 µM): 0.725
relative viability ([2]; first compound 2.53 µM): 0.647
relative viability ([3]; first compound 0.08 µM): 0.706
relative viability ([3]; first compound 0.253 µM): 0.578
relative viability ([3]; first compound 0.8 µM): 0.715
relative viability ([3]; first compound 2.53 µM): 0.938
relative viability ([4]; first compound 0.08 µM): 0.286
relative viability ([4]; first compound 0.253 µM): 0.336
relative viability ([4]; first compound 0.8 µM): 0.346
relative viability ([4]; first compound 2.53 µM): 0.497
relative viability ([5]; first compound 0.08 µM): 0.67
relative viability ([5]; first compound 0.253 µM): 0.485
relative viability ([5]; first compound 0.8 µM): 0.524
relative viability ([5]; first compound 2.53 µM): 0.686
relative viability ([6]; first compound 0.08 µM): 0.511
relative viability ([6]; first compound 0.253 µM): 0.56
relative viability ([6]; first compound 0.8 µM): 0.535
relative viability ([6]; first compound 2.53 µM): 0.613
relative viability ([7]; first compound 0.08 µM): 0.675
relative viability ([7]; first compound 0.253 µM): 0.542
relative viability ([7]; first compound 0.8 µM): 0.696
relative viability ([7]; first compound 2.53 µM): 0.619
relative viability ([8]; first compound 0.08 µM): 0.551
relative viability ([8]; first compound 0.253 µM): 0.517
relative viability ([8]; first compound 0.8 µM): 0.455
relative viability ([8]; first compound 2.53 µM): 0.43
relative viability ([9]; first compound 0.08 µM): 0.525
relative viability ([9]; first compound 0.253 µM): 0.552
relative viability ([9]; first compound 0.8 µM): 0.737
relative viability ([9]; first compound 2.53 µM): 1.19
relative viability ([10]; first compound 0.08 µM): 1
relative viability ([10]; first compound 0.253 µM): 0.584
relative viability ([10]; first compound 0.8 µM): 0.75
relative viability ([10]; first compound 2.53 µM): 0.744
relative viability ([11]; first compound 0.08 µM): 0.759
relative viability ([11]; first compound 0.253 µM): 0.585
relative viability ([11]; first compound 0.8 µM): 0.601
relative viability ([11]; first compound 2.53 µM): 0.65
relative viability ([12]; first compound 0.08 µM): 0.434
relative viability ([12]; first compound 0.253 µM): 0.295
relative viability ([12]; first compound 0.8 µM): 0.332
relative viability ([12]; first compound 2.53 µM): 0.589
relative viability ([13]; first compound 0.08 µM): 0.451
relative viability ([13]; first compound 0.253 µM): 0.45
relative viability ([13]; first compound 0.8 µM): 0.366
relative viability ([13]; first compound 2.53 µM): 0.458
relative viability ([14]; first compound 0.08 µM): 0.92
relative viability ([14]; first compound 0.253 µM): 0.911
relative viability ([14]; first compound 0.8 µM): 0.87
relative viability ([14]; first compound 2.53 µM): 0.806
relative viability ([15]; first compound 0.08 µM): 0.476
relative viability ([15]; first compound 0.253 µM): 0.395
relative viability ([15]; first compound 0.8 µM): 0.476
relative viability ([15]; first compound 2.53 µM): 0.393
relative viability ([16]; first compound 0.253 µM): 0.52
relative viability ([16]; first compound 2.53 µM): 0.53
relative viability ([17]; first compound 0.08 µM): 0.901
relative viability ([17]; first compound 0.253 µM): 0.683
relative viability ([17]; first compound 0.8 µM): 0.944
relative viability ([17]; first compound 2.53 µM): 0.755
relative viability ([18]; first compound 0.08 µM): 0.713
relative viability ([18]; first compound 0.253 µM): 0.629
relative viability ([18]; first compound 0.8 µM): 0.724
relative viability ([18]; first compound 2.53 µM): 0.723
relative viability ([19]; first compound 0.08 µM): 0.931
relative viability ([19]; first compound 0.253 µM): 0.416
relative viability ([19]; first compound 0.8 µM): 0.698
relative viability ([19]; first compound 2.53 µM): 0.6
relative viability ([20]; first compound 0.08 µM): 0.442
relative viability ([20]; first compound 0.253 µM): 0.366
relative viability ([20]; first compound 0.8 µM): 0.399
relative viability ([20]; first compound 2.53 µM): 0.542
relative viability ([21]; first compound 0.08 µM): 0.29
relative viability ([21]; first compound 0.253 µM): 0.307
relative viability ([21]; first compound 0.8 µM): 0.261
relative viability ([21]; first compound 2.53 µM): 0.318
relative viability ([22]; first compound 0.08 µM): 0.263
relative viability ([22]; first compound 0.253 µM): 0.229
relative viability ([22]; first compound 0.8 µM): 0.569
relative viability ([22]; first compound 2.53 µM): 0.287
relative viability ([23]; first compound 0.08 µM): 0.489
relative viability ([23]; first compound 0.8 µM): 0.441
relative viability ([23]; first compound 2.53 µM): 0.468
